The values that follow come from patent US20040116405A1, “Use of bicyclic esters or amides for the treatment of diseases responsive to enhanced potassium channel activity” (priority 2001, published 2004).

This experiment concerns the target T1, hIK channels (Homo sapiens, UniProt O15554).
T1 construct: The full length hSK-1, 2, 3 and IK clones were obtained; expressed in transfected cells
Put plainly: Whole cell patch clamp electrophysiology, hIK channels expressed in CHO-K1 cells (FIG. 1). Format: cell-based. The procedure: FIG. 1 illustrates the activation of hIK channels expressed in CHO—K1 cells by a compound of formula (V): [drawing 3]
The full length hSK-1, 2, 3 and IK clones were obtained either by PCR and 5′-RACE from a human cDNA library (Genbank accession numbers hSK1 U69883; hSK-2 unpublished) or from the Incyte or dbEST databases (Incyte Pharmaceuticals, Inc.; hSK3 AJ251016, hIK AF022797). An optimal Kozak sequence was added to the initiation site and the cDNA was cloned into Bluescript and subsequently the IRES vector pCIN5 for mammalian expression.
All SK/IK stable cell lines were generated in CHO—K1 using the pCIN5 construct, under selection for resistance to 500 μg/ml geneticin. Five μg of the purified plasmid DNA was used to transfect 5×10^6 CHO—K1 cells (ATCC N° CRL 9618) by electroporation (standard protocol with BIORAD Gene Pulser II). […]
Standard whole cell patch clamp electrophysiology methods are used to record membrane currents from single cells expressing either SK or IK channels. […] Membrane currents are amplified and recorded with an Axopatch 200B or HEKA EPC-9 patch clamp amplifier coupled to a Pentium microprocessor via an analog-digital interface. […] Pipettes are backfilled with an internal solution containing a 144 mM KCl, 10 mM EGTA, 10 mM HEPES, 1 mM MgCl2 and concentrations of CaCl2 calculated to give free Ca^2+ concentrations ranging from 30 nM to 1 μM. […]

As for `NC(=O)/C=C1\CCc2c(F)cc(F)cc21` [compound of formula (V)], the “activation of hIK channels (whole cell currents, timecourse, concentration response curves)” value (hIK expressed in CHO-K1 cells, FIG. 1(a)-(c)) is reported as “activation”.
Turning to charybdotoxin, where the note is “charybdotoxin 100 nM, hIK in CHO-K1 cells activated by compound of formula (V), FIG. 1(d)”, the “inhibition of hIK current by the IK blocker” value is reported as “inhibition”.
